“And” between values parts separate entries of the source, which are not always exact repeats. Identical values can stand only once. Like-named read-outs stand apart in the source and are kept apart here. Some results are limits rather than exact numbers.

In one test the target is T1, hMAOB (Homo sapiens, UniProt P27338).
T1 sequence (P27338 1-520): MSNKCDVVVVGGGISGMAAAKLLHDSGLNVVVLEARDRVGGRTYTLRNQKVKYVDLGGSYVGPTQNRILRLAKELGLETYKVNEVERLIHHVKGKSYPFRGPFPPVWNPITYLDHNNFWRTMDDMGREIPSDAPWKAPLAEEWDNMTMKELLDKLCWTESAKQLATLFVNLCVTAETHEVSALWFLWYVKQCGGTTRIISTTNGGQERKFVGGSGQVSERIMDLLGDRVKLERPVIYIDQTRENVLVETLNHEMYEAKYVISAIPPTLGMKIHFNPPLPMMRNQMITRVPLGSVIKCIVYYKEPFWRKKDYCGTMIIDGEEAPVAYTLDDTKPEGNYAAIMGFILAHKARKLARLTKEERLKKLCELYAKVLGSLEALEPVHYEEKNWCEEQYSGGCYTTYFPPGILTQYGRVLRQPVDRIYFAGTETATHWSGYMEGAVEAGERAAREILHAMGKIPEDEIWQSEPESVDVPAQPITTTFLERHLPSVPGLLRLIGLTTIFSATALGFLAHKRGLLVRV
Briefly: MAO activity assay (kynuramine, HPLC-MS). In kind it is biochemical. The following applies: at 10 μM; read-out: hMAOB enzymatic inhibition (%).

In another test the target is T2, hMAOA (Homo sapiens, UniProt P21397).
T2 sequence (P21397 1-527): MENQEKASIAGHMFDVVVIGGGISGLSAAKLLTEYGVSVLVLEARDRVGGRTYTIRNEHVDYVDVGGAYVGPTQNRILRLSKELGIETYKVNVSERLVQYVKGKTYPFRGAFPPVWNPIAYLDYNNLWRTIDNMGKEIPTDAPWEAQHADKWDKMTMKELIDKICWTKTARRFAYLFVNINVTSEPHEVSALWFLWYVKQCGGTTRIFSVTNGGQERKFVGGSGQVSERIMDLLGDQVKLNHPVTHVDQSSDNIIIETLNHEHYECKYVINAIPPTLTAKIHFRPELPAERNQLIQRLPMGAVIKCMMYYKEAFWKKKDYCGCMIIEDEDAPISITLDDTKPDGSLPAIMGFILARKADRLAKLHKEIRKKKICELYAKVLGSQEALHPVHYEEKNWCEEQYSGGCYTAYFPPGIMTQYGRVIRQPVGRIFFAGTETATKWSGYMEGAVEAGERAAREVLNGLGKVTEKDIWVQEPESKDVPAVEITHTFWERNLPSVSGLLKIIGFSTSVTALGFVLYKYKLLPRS
Briefly: MAO activity assay (kynuramine, HPLC-MS). In kind it is biochemical.

Another test concerns the target T3, hBuChE (Homo sapiens, UniProt P06276).
T3 construct: hBuChE from human serum (Sigma Aldrich, Madrid, Spain); purchased Sigma Aldrich; host or cells: human serum
Put plainly: biochemical. In kind it is biochemical.

The target of a further test is T4, hAChE (Homo sapiens, UniProt P22303).
T4 construct: purchased Sigma Aldrich; host or cells: HEK 293
T4 sequence (P22303 32-614): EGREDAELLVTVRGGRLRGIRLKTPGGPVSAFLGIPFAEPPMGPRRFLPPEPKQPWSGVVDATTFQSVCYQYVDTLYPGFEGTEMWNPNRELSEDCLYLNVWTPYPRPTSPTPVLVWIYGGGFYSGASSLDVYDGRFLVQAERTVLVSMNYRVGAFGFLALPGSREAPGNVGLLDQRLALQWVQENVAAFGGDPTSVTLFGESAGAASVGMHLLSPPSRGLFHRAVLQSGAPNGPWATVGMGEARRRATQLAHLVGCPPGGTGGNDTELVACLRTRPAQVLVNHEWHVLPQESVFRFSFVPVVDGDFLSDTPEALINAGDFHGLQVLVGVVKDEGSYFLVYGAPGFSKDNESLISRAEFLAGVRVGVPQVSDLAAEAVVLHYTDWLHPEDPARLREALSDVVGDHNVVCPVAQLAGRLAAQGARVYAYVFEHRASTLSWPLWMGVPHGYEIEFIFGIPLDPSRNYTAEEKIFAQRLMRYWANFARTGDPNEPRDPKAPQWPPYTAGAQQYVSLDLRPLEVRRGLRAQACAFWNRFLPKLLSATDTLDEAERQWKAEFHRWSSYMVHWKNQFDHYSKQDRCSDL
Briefly: biochemical. The format is biochemical.

The target in the next test is T5, eqBuChE (Equus caballus, UniProt P81908).
T5 construct: eqBuChE (purified from equine serum); from tissue; host or cells: equine serum
T5 sequence (P81908 whole entry): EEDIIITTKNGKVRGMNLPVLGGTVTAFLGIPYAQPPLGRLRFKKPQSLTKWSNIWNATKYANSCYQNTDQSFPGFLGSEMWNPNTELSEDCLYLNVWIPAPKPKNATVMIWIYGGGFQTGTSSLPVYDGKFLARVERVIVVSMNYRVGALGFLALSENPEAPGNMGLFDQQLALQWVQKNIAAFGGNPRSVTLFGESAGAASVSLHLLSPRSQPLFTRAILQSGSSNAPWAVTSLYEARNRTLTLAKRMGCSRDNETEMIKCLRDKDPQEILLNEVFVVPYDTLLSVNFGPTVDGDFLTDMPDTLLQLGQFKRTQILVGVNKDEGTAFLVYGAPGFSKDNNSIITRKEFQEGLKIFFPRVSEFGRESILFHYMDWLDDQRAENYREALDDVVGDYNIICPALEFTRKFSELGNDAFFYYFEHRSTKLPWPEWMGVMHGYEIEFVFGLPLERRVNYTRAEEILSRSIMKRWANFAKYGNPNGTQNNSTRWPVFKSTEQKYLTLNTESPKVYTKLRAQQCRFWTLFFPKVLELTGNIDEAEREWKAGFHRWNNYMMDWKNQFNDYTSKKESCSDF
Put plainly: biochemical. The format is biochemical, equine. The following applies: mean ± SEM. On the procedure:
(§1) Inhibition of EeAChE and eqBuChE of hybrids 14a–p was carried out with EeAChE (type VI-S, purified from Electrophorus electricus) and eqBuChE (purified from equine serum) using Ellman’s protocol. Briefly, the reaction was performed in a final volume of 3 ml of a phosphate-buffered solution (0.1 M) at pH = 8.0 containing 5,5’-dithiobis-2-nitrobenzoic acid (DTNB) (2.625 μL, 0.35 mM), EeAChE (29 μl, 0.035 U/mL) or eqBuChE (60 μl, 0.05 U/mL), Bovine Albumin Serum phosphate-buffered solution (40 μL 1% w/v), and tested compound (3 µL). After 10 min of incubation, the substrate, AcTCh) iodide or butyrylthiocholine (BuTCh) iodide, was added, and the reaction was incubated for an additional 15 min.

The nature of test [1]: Oxygen radical absorbance capacity assay (ORAC-FL). The following applies: Trolox equivalents (TE), mean (n = 3) ± SD.
The next test concerns the target T6, EeAChE (Electrophorus electricus, UniProt O42275).
T6 construct: EeAChE (type VI-S, purified from Electrophorus electricus); tissue type VI-S
Put plainly: biochemical. How it is done: as §1

For test [2] the following is noted: ORAC-FL, positive reference molecules; cited from earlier work.

T6 sequence (O42275 24-633): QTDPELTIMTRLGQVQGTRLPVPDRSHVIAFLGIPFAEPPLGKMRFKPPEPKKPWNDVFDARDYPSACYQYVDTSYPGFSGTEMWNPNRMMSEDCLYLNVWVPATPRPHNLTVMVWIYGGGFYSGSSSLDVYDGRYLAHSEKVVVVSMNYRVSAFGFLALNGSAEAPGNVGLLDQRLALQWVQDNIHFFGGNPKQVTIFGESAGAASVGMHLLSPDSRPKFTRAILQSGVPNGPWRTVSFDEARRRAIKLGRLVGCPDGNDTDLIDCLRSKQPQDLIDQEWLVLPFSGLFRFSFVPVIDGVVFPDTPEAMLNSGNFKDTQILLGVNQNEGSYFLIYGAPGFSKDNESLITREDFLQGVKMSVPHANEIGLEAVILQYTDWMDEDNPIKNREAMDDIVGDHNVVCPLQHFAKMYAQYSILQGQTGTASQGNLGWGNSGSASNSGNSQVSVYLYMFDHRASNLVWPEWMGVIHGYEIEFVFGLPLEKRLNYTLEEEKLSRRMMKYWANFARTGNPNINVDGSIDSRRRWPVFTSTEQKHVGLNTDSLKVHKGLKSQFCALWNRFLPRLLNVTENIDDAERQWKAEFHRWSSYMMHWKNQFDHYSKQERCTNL
T3 sequence (P06276 29-602): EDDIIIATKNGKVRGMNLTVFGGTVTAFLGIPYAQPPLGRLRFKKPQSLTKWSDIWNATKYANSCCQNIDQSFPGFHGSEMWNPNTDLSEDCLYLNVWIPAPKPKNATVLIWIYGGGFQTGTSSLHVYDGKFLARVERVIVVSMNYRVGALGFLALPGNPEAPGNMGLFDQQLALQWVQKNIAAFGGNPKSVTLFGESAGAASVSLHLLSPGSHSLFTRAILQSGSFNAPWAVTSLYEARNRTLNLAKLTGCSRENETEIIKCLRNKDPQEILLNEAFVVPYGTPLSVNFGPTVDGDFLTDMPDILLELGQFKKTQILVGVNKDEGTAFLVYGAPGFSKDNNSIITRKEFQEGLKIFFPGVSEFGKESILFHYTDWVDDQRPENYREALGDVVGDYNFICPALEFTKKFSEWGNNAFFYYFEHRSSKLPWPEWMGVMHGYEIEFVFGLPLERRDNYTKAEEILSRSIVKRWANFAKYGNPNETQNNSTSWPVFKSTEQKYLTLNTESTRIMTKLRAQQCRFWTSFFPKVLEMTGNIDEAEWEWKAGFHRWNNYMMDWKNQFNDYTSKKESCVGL

What is called inhibition is the relative decrease from the control value, in per cent. By IC50 is commonly meant the midpoint of a concentration-inhibition curve. The low end stands for greater potency, the high end for weaker potency. As to `CC(C)Oc1ccc2[nH]cc(CCNC(=O)CN(CCCCC3CCN(Cc4ccccc4)CC3)C(=O)c3cc(=O)c4ccccc4o3)c2c1` [14o], the inhibition at 10 µM at hMAOB is below 40%; on hMAOA (at 10 μM, read-out: hMAOA enzymatic inhibition (%)) it was below 40%; at hBuChE (at 10 μM, read-out: hBuChE enzymatic inhibition (%)) it was below 50%; at hAChE (at 10 μM, read-out: hAChE enzymatic inhibition (%)), below 50%. The IC50 came to 46.6 ± 2.76 nM on eqBuChE, 90 nM at EeAChE (mean ± SEM) and 88.5 nM against EeAChE (values given in nM). Besides, the “ORAC (Eq Trolox)” value in test [1] came out at 2.63 ± 0.12 Eq Trolox.
For the compound `CCCOc1ccc2[nH]cc(CCNC(=O)CN(CCCCC3CCN(Cc4ccccc4)CC3)C(=O)c3cc(=O)c4ccccc4o3)c2c1` [14p], at hMAOB, the inhibition at 10 µM was below 40%. Further, the IC50 on hMAOA stood at 1390 ± 110 nM; against hBuChE (mean ± SEM), 80.4 ± 12.4 nM; against hAChE (mean ± SEM), 2100 ± 510 nM; at eqBuChE, 61.3 ± 5.48 nM; against EeAChE (mean ± SEM), 80 nM. In addition, the “ORAC (Eq Trolox)” value in test [1] was found to be 2.67 ± 0.15 Eq Trolox.
With `COc1cc(/C=C/C(=O)O)ccc1O` [Ferulic acid], in test [2], the “ORAC (Eq Trolox)” value is 3.74 Eq Trolox and 3.74 ± 0.22 Eq Trolox.

These data come from publication PMC6366423 (Journal of Enzyme Inhibition and Medicinal Chemistry, 2019).
